The source of these data is ChEMBL document CHEMBL1287775, “Stereoselective synthesis of hexahydro-3-methyl-1-arylchromeno[3,4-b]pyrrole and its annulated heterocycles as potent antimicrobial agents for human pathogens” (2010).

In brackets after ≈: the same amount, converted by molar mass.

The test system of one test is Aspergillus sp. The test is described as follows: Antimicrobial activity against Aspergillus sp. by poison food technique. Format: functional.
The subject of the next test is Streptococcus pneumoniae. The test is described as follows: Antimicrobial activity against Streptococcus pneumoniae by well diffusion method. Format: functional. A general note: Agar diffusion results depend on both activity and mobility in agar.
For a further test, the system named is Salmonella typhi. The test is described as follows: Antimicrobial activity against Salmonella typhi by well diffusion method. The conditions noted are these: Salmonella enterica. Format: functional, Salmonella enterica subsp. enterica serovar Typhi.
A further test deals with Candida albicans. Briefly: Antimicrobial activity against Candida albicans by poison food technique. Format: functional.
The next test deals with Bacillus subtilis. Briefly: Antimicrobial activity against Bacillus subtilis by well diffusion method. The test is classed as functional.
The test system of the next test is Shigella sp. Briefly: Antimicrobial activity against Shigella sp. by well diffusion method. The test is classed as functional.
In another test the test system is Trichoderma. The test is described as follows: Antimicrobial activity against Trichoderma sp. by poison food technique. Format: functional.
A further test has as its system Escherichia coli. The test is described as follows: Antimicrobial activity against Escherichia coli by well diffusion method. Format: functional.
The next test deals with Staphylococcus aureus. Briefly: Antimicrobial activity against Staphylococcus aureus by well diffusion method. Format: functional.

In general, MIC refers to the smallest concentration in the dilution series that meets the test's criterion for growth inhibition. Low readings indicate greater potency, high ones weaker potency. For `O=C(c1ccc(Cl)cc1)[C@@H]1[C@H]2c3ccccc3OC[C@H]2N2CCC[C@H]12`, the MIC was determined as 25 µg/mL (≈ 70.7 µM) against Aspergillus sp.; 10 µg/mL (≈ 28.3 µM) in the test on Streptococcus pneumoniae; 15 µg/mL (≈ 42.4 µM) against Salmonella typhi; 25 µg/mL (≈ 70.7 µM) in the test on Candida albicans; 5 µg/mL (≈ 14.1 µM) against Bacillus subtilis; 5 µg/mL (≈ 14.1 µM) in the test on Shigella sp.. The MIC with Trichoderma was 30 µg/mL (≈ 84.8 µM); against Escherichia coli, 10 µg/mL (≈ 28.3 µM); against Staphylococcus aureus, 5 µg/mL (≈ 14.1 µM).

As for `O=C(c1ccc(Cl)cc1)[C@@H]1[C@H]2c3ccccc3OC[C@H]2N2Cc3ccccc3C[C@H]12`, the minimum inhibitory concentration (MIC) against Aspergillus sp. is 25 µg/mL (≈ 60.1 µM); in the test with Streptococcus pneumoniae, 15 µg/mL (≈ 36.1 µM); in the test with Salmonella typhi, 15 µg/mL (≈ 36.1 µM); in the test on Candida albicans, 20 µg/mL (≈ 48.1 µM); in the test on Bacillus subtilis, 5 µg/mL (≈ 12 µM); against Shigella sp. it was 20 µg/mL (≈ 48.1 µM). The figures for the minimal inhibitory concentration (MIC) against Trichoderma, against Escherichia coli and in the test with Staphylococcus aureus were 45 µg/mL (≈ 108 µM), 10 µg/mL (≈ 24 µM) and 5 µg/mL (≈ 12 µM), respectively.

Regarding `O=C(c1ccc(Cl)cc1)[C@@H]1[C@H]2c3ccccc3OC[C@H]2N2CSC[C@H]12`, the MIC in the test with Aspergillus sp. is 70 µg/mL (≈ 188 µM); in the test with Streptococcus pneumoniae, 30 µg/mL (≈ 80.7 µM); against Salmonella typhi it was 25 µg/mL (≈ 67.2 µM); against Candida albicans, 65 µg/mL (≈ 175 µM); with Bacillus subtilis, 20 µg/mL (≈ 53.8 µM); in the test with Shigella sp., 30 µg/mL (≈ 80.7 µM). Moreover, the MIC against Trichoderma turned out to be 75 µg/mL (≈ 202 µM); with Escherichia coli, 15 µg/mL (≈ 40.3 µM); against Staphylococcus aureus, 25 µg/mL (≈ 67.2 µM).

Take `O=C1c2ccccc2CC[C@]12[C@H]1c3ccccc3OC[C@H]1N1CCC[C@@H]12`: the minimal inhibitory concentration (MIC) with Aspergillus sp. is 75 µg/mL (≈ 217 µM); with Streptococcus pneumoniae it was 55 µg/mL (≈ 159 µM); against Salmonella typhi, 60 µg/mL (≈ 174 µM); in the test with Candida albicans, 95 µg/mL (≈ 275 µM); with Bacillus subtilis it was 70 µg/mL (≈ 203 µM); against Shigella sp., 75 µg/mL (≈ 217 µM). Besides, the MIC against Trichoderma stood at 110 µg/mL (≈ 318 µM); in the test with Escherichia coli, 50 µg/mL (≈ 145 µM); in the test with Staphylococcus aureus, 65 µg/mL (≈ 188 µM).

Turning to `CN(C)[C@@H]1C(O)=C(C(N)=O)C(=O)[C@@]2(O)C(O)=C3C(=O)c4c(O)cccc4[C@@](C)(O)[C@H]3C[C@@H]12` [TETRACYCLINE], the MIC came out at 20 µg/mL (≈ 45 µM) against Streptococcus pneumoniae; 25 µg/mL (≈ 56.3 µM) in the test with Salmonella typhi; 10 µg/mL (≈ 22.5 µM) against Bacillus subtilis; 15 µg/mL (≈ 33.8 µM) with Shigella sp.; 10 µg/mL (≈ 22.5 µM) with Escherichia coli; 15 µg/mL (≈ 33.8 µM) against Staphylococcus aureus.

Consider `O=C1c2ccccc2CC[C@]12[C@H]1c3ccccc3OC[C@H]1N1CSC[C@@H]12`, for which the MIC in the test on Aspergillus sp. was found to be 75 µg/mL (≈ 206 µM); against Streptococcus pneumoniae, 40 µg/mL (≈ 110 µM); with Salmonella typhi it was 60 µg/mL (≈ 165 µM); in the test on Candida albicans it was 90 µg/mL (≈ 248 µM); in the test with Bacillus subtilis, 55 µg/mL (≈ 151 µM); with Shigella sp., 70 µg/mL (≈ 193 µM). For the same molecule, the MIC in the test on Trichoderma amounted to 105 µg/mL (≈ 289 µM); against Escherichia coli, 65 µg/mL (≈ 179 µM); against Staphylococcus aureus it was 45 µg/mL (≈ 124 µM).

Regarding `CN1C[C@@]2(CCc3ccccc3C2=O)[C@H]2c3ccccc3OC[C@H]21`, the MIC in the test on Aspergillus sp. was 85 µg/mL (≈ 266 µM); against Streptococcus pneumoniae, 60 µg/mL (≈ 188 µM); in the test on Salmonella typhi, 55 µg/mL (≈ 172 µM); with Candida albicans it was 75 µg/mL (≈ 235 µM); in the test on Bacillus subtilis it was 35 µg/mL (≈ 110 µM); against Shigella sp., 45 µg/mL (≈ 141 µM). For the same molecule, the minimal inhibitory concentration (MIC) against Trichoderma stood at 105 µg/mL (≈ 329 µM); with Escherichia coli, 25 µg/mL (≈ 78.3 µM); with Staphylococcus aureus it was 20 µg/mL (≈ 62.6 µM).

As for `O=C1c2ccccc2CC[C@]12[C@H]1c3ccccc3OC[C@H]1N1Cc3ccccc3C[C@@H]12`, the minimum inhibitory concentration (MIC) with Aspergillus sp. came to 25 µg/mL (≈ 61.3 µM); against Streptococcus pneumoniae it was 10 µg/mL (≈ 24.5 µM); in the test on Salmonella typhi, 5 µg/mL (≈ 12.3 µM); in the test on Candida albicans, 35 µg/mL (≈ 85.9 µM); with Bacillus subtilis, 5 µg/mL (≈ 12.3 µM); with Shigella sp., 5 µg/mL (≈ 12.3 µM). Moreover, the MIC against Trichoderma came to 50 µg/mL (≈ 123 µM); against Escherichia coli, 5 µg/mL (≈ 12.3 µM); with Staphylococcus aureus, 5 µg/mL (≈ 12.3 µM).

As to `CN1C[C@H](C(=O)c2ccc(Cl)cc2)[C@H]2c3ccccc3OC[C@H]21`, the MIC is 35 µg/mL (≈ 107 µM) in the test on Aspergillus sp.; 25 µg/mL (≈ 76.3 µM) with Streptococcus pneumoniae; 10 µg/mL (≈ 30.5 µM) in the test on Salmonella typhi; 45 µg/mL (≈ 137 µM) against Candida albicans; 15 µg/mL (≈ 45.8 µM) with Bacillus subtilis; 25 µg/mL (≈ 76.3 µM) against Shigella sp.. Also, the MIC in the test on Trichoderma came to 40 µg/mL (≈ 122 µM); with Escherichia coli it was 10 µg/mL (≈ 30.5 µM); with Staphylococcus aureus, 20 µg/mL (≈ 61 µM).

Take `COC(=O)Nc1nc2ccccc2[nH]1` [CARBENDAZIM]: the figures for the MIC in the test with Aspergillus sp., against Candida albicans and against Trichoderma were 15 µg/mL (≈ 78.5 µM), 10 µg/mL (≈ 52.3 µM) and 15 µg/mL (≈ 78.5 µM), respectively.
